According to PubChem BioAssay (NCI):
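GI50 is the concentration that inhibits growth by half. TGI is the concentration that stops growth completely.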

Experiments:
Test in all cases: NCI anticancer screen, dose series, 384-well format
M14 melanoma = tested on: M14 melanoma
NCI-H522 lung = tested on: NCI-H522 lung
SW-620 colon = tested on: SW-620 colon
TK-10 renal = tested on: TK-10 renal
ACHN renal = tested on: ACHN renal
RXF 393 renal = tested on: RXF 393 renal
RPMI-8226 leukemia = tested on: RPMI-8226 leukemia
NCI-H460 NSCLC = tested on: NCI-H460 NSCLC
SK-MEL-28 melanoma = tested on: SK-MEL-28 melanoma
MOLT-4 leukemia = tested on: MOLT-4 leukemia
UACC-62 melanoma = tested on: UACC-62 melanoma
LOX IMVI melanoma = tested on: LOX IMVI melanoma
HT29 colon = tested on: HT29 colon
MCF7 breast = tested on: MCF7 breast
HCC-2998 colon = tested on: HCC-2998 colon
OVCAR-4 ovarian = tested on: OVCAR-4 ovarian
NCI-H226 lung = tested on: NCI-H226 lung
SNB-19 CNS = tested on: SNB-19 CNS
SR leukemia = tested on: SR leukemia
DU-145 prostate = tested on: DU-145 prostate
HOP-92 NSCLC = tested on: HOP-92 NSCLC
OVCAR-8 ovarian = tested on: OVCAR-8 ovarian
UO-31 renal = tested on: UO-31 renal
MDA-MB-468 breast = tested on: MDA-MB-468 breast
SF-295 CNS = tested on: SF-295 CNS
SF-539 CNS = tested on: SF-539 CNS
A498 renal = tested on: A498 renal
NCI-H322M lung = tested on: NCI-H322M lung
NCI-H23 lung = tested on: NCI-H23 lung
A549 NSCLC = tested on: A549 NSCLC
HL-60(TB) leukemia = tested on: HL-60(TB) leukemia
K-562 leukemia = tested on: K-562 leukemia
HOP-62 NSCLC = tested on: HOP-62 NSCLC
PC-3 prostate = tested on: PC-3 prostate
CAKI-1 renal = tested on: CAKI-1 renal
HCT-116 colon = tested on: HCT-116 colon
SNB-75 CNS = tested on: SNB-75 CNS
EKVX NSCLC = tested on: EKVX NSCLC
IGROV1 ovarian = tested on: IGROV1 ovarian
MDA-MB-231 breast = tested on: MDA-MB-231 breast
MDA-MB-435 melanoma = tested on: MDA-MB-435 melanoma
786-0 renal = tested on: 786-0 renal
SF-268 CNS = tested on: SF-268 CNS
UACC-257 melanoma = tested on: UACC-257 melanoma
U251 glioblastoma = tested on: U251 glioblastoma
BT-549 breast = tested on: BT-549 breast
NCI/ADR-RES ovarian = tested on: NCI/ADR-RES ovarian
HS 578T breast = tested on: HS 578T breast
SK-MEL-5 melanoma = tested on: SK-MEL-5 melanoma
OVCAR-3 ovarian = tested on: OVCAR-3 ovarian
CCRF-CEM leukemia = tested on: CCRF-CEM leukemia
MALME-3M melanoma = tested on: MALME-3M melanoma
COLO 205 colon = tested on: COLO 205 colon
HCT-15 colon = tested on: HCT-15 colon
KM12 colon = tested on: KM12 colon
T-47D breast = tested on: T-47D breast
SN12C renal = tested on: SN12C renal
SK-OV-3 ovarian = tested on: SK-OV-3 ovarian

With C[C@@H]1COCCN1c1cc(C2([S@](C)(=N)=O)CC2)nc(-c2ccnc3[nH]ccc23)n1 the GI50 (M14 melanoma) was 0.896 µM, the TGI (M14 melanoma) was 3.26 µM and the GI50 (NCI-H522 lung) was 12.8 µM. The TGI (NCI-H522 lung) was 81.6 µM, the GI50 (SW-620 colon) was 4.88 µM and the TGI (SW-620 colon) was > 100 µM. For the same compound, the GI50 (TK-10 renal) was 0.412 µM, the TGI (TK-10 renal) was 2.42 µM and the GI50 (ACHN renal) was 0.826 µM. The TGI (ACHN renal) was 6.37 µM, the GI50 (RXF 393 renal) was 1.28 µM and the TGI (RXF 393 renal) was 3.93 µM. The GI50 (RPMI-8226 leukemia) was 0.694 µM, the TGI (RPMI-8226 leukemia) was 2.26 µM and the GI50 (NCI-H460 NSCLC) was 0.455 µM. The TGI (NCI-H460 NSCLC) was 8.99 µM, the GI50 (SK-MEL-28 melanoma) was 18.3 µM and the TGI (SK-MEL-28 melanoma) was 81.8 µM. The GI50 (MOLT-4 leukemia) was 0.342 µM, the TGI (MOLT-4 leukemia) was 1.52 µM and the GI50 (UACC-62 melanoma) was 2.43 µM. The TGI (UACC-62 melanoma) was 36.8 µM, the GI50 (LOX IMVI melanoma) was 2.34 µM and the TGI (LOX IMVI melanoma) was 12.6 µM. The GI50 (HT29 colon) was 3.17 µM, the TGI (HT29 colon) was 9.92 µM and the GI50 (MCF7 breast) was 0.431 µM. The TGI (MCF7 breast) was > 100 µM, the GI50 (HCC-2998 colon) was 0.231 µM and the TGI (HCC-2998 colon) was 1.6 µM. For the same compound, the GI50 (OVCAR-4 ovarian) was 2.03 µM, the TGI (OVCAR-4 ovarian) was 31 µM and the GI50 (NCI-H226 lung) was 16.3 µM. For the same compound, the TGI (NCI-H226 lung) was 59.3 µM, the GI50 (SNB-19 CNS) was 4.39 µM and the TGI (SNB-19 CNS) was 43.4 µM. The GI50 (SR leukemia) was 0.0322 µM, the TGI (SR leukemia) was 0.125 µM and the GI50 (DU-145 prostate) was 2.8 µM. For the same compound, the TGI (DU-145 prostate) was > 100 µM, the GI50 (HOP-92 NSCLC) was 1.16 µM and the TGI (HOP-92 NSCLC) was 6.77 µM. The GI50 (OVCAR-8 ovarian) was 3.77 µM, the TGI (OVCAR-8 ovarian) was 16.3 µM and the GI50 (UO-31 renal) was 2.82 µM. The TGI (UO-31 renal) was 25.5 µM, the GI50 (MDA-MB-468 breast) was 2.9 µM and the TGI (MDA-MB-468 breast) was 15.5 µM. The GI50 (SF-295 CNS) was 1.97 µM, the TGI (SF-295 CNS) was 7.74 µM and the GI50 (SF-539 CNS) was 0.64 µM. For the same compound, the TGI (SF-539 CNS) was 2.69 µM, the GI50 (A498 renal) was 0.398 µM and the TGI (A498 renal) was 1.95 µM. The GI50 (NCI-H322M lung) was 0.815 µM, the TGI (NCI-H322M lung) was 4.99 µM and the GI50 (NCI-H23 lung) was 0.792 µM. The TGI (NCI-H23 lung) was 2.4 µM, the GI50 (A549 NSCLC) was 3.1 µM and the TGI (A549 NSCLC) was 21.2 µM. The GI50 (HL-60(TB) leukemia) was 0.666 µM, the TGI (HL-60(TB) leukemia) was 1.91 µM and the GI50 (K-562 leukemia) was 1.63 µM. The TGI (K-562 leukemia) was 3.7 µM, the GI50 (HOP-62 NSCLC) was 1.1 µM and the TGI (HOP-62 NSCLC) was 4.39 µM. The GI50 (PC-3 prostate) was 6.97 µM, the TGI (PC-3 prostate) was > 100 µM and the GI50 (CAKI-1 renal) was 2.74 µM. For the same compound, the TGI (CAKI-1 renal) was 22.8 µM, the GI50 (HCT-116 colon) was 1.39 µM and the TGI (HCT-116 colon) was 14.6 µM. For the same compound, the GI50 (SNB-75 CNS) was 3.51 µM, the TGI (SNB-75 CNS) was > 100 µM and the GI50 (EKVX NSCLC) was 6.53 µM. The TGI (EKVX NSCLC) was 59.9 µM, the GI50 (IGROV1 ovarian) was 1.87 µM and the TGI (IGROV1 ovarian) was 21.6 µM. For the same compound, the GI50 (MDA-MB-231 breast) was 6.1 µM, the TGI (MDA-MB-231 breast) was > 100 µM and the GI50 (MDA-MB-435 melanoma) was 3.46 µM. The TGI (MDA-MB-435 melanoma) was > 100 µM, the GI50 ([…]-0 renal) was 0.718 µM and the TGI (786-0 renal) was 4.25 µM. The GI50 (SF-268 CNS) was 3.35 µM, the TGI (SF-268 CNS) was 46.3 µM and the GI50 (UACC-257 melanoma) was 22.4 µM. For the same compound, the TGI (UACC-257 melanoma) was > 100 µM, the GI50 (U251 glioblastoma) was 3 µM and the TGI (U251 glioblastoma) was 41.8 µM. For the same compound, the GI50 (BT-549 breast) was 0.573 µM, the TGI (BT-549 breast) was 3.51 µM and the GI50 (NCI/ADR-RES ovarian) was 25.4 µM. The TGI (NCI/ADR-RES ovarian) was > 100 µM, the GI50 (HS 578T breast) was 0.336 µM and the TGI (HS 578T breast) was 1.72 µM. It also gave a GI50 (SK-MEL-5 melanoma) of 5.24 µM, a TGI (SK-MEL-5 melanoma) of 18.7 µM and a GI50 (OVCAR-3 ovarian) of 1.94 µM. The TGI (OVCAR-3 ovarian) was 23.8 µM, the GI50 (CCRF-CEM leukemia) was 0.337 µM and the TGI (CCRF-CEM leukemia) was 1.4 µM. The GI50 (MALME-3M melanoma) was 3.87 µM, the TGI (MALME-3M melanoma) was 18 µM and the GI50 (COLO 205 colon) was 7.72 µM. For the same compound, the TGI (COLO 205 colon) was 83.7 µM, the GI50 (HCT-15 colon) was 1.9 µM and the TGI (HCT-15 colon) was 56.1 µM. The GI50 (KM12 colon) was 0.734 µM, the TGI (KM12 colon) was 16.5 µM and the GI50 (T-47D breast) was 18.7 µM. The TGI (T-47D breast) was > 100 µM, the GI50 (SN12C renal) was 4.38 µM and the TGI (SN12C renal) was 55.9 µM. It also gave a GI50 (SK-OV-3 ovarian) of 1.59 µM and a TGI (SK-OV-3 ovarian) of 10.5 µM.
